Measurements reported in US11672786B2, “Methods of treating diseases associated with repeat instability” (The Hospital for Sick Children, priority 2016, dated 2023).

Columns and labels:
[1] = test system: clustered short slip-outs on (CAG)50●(CTG)50 (S-DNA); assay: band-shift NA-DNA binding, clustered short slip-outs (S-DNA); design: species or system human; conditions: NA 0.15-50 μM, 4% polyacrylamide gel
From the text: FIG. 2 are the results of experiments showing that NA binds to long CAG slip-outs. […] The (CAG)n DNA sequence (left) can fold into an hairpin structure involving mismatched A-A pair flanking C-G base pairs (middle). NA molecules can intercalate into the DNA helix, with the 2-amino-1,8-naphthyridine moiety (in red) hydrogen bonding to guanine and 8-azaquinolone moiety (in blue) hydrogen bonding to adenine. […] Long slip-outs extruded as a single slip-out from a fully base-paired backbone of (CTG)n●(CAG)n, as described (Pearson et al., 2002, Nuc. Acids Res., 30:4534-47). DNAs were mixed with increasing concentrations of NA (0.15 μM, 0.75 μM, 7.5 μM and 50 μM) and resolved on 4% polyacrylamide gels. All lanes are from the same gel, and they were separated for clarity. NA-DNA complexes are shown by brackets, free DNA is indicated by arrowheads. […] The relative migration was measured for the linear and the three slip-outs substrates as the ratio of the migration distance of each NA-DNA complex to the migration distance of the free DNA. The migration distance was measured from the well to a consistent center point of each band. […]

CAG-CAG = conditions: cited from earlier work

For naphthyridine-azaquinolone, the “NA binding (band-shift)” value [1] is listed as “can bind NA to a limited degree”, the “affinity of each NA molecule/CAG-CAG as Ka” value (CAG-CAG; estimated) is listed as 1.8e+06 M⁻¹ and the Kd (CAG-CAG; estimated, read-out: affinity of each NA molecule/CAG-CAG as Kd) is listed as 0.56 µM. The “ratio of NA molecules to 1 CAG-CAG” value (CAG-CAG; previously estimated binding stoichiometry) was 2.
